Reference: patent publication US20250388597A1, “BIFUNCTIONAL PHOTOCROSSLINKING PROBES FOR COVALENT CAPTURE OF PROTEIN-NUCLEIC ACID COMPLEXES IN CELLS” (UNIVERSITY OF SOUTHERN CALIFORNIA, priority 2022, published 2025)

Key:
MEF2A/DNA complex = target: T1, MEF2A/DNA complex (Homo sapiens, UniProt Q02078); assay: In vitro photo-crosslinking of assembled MEF2/DNA complex, read on denaturing SDS/urea gel or agarose gel; format: biochemical; details: for formation of covalent MEF2/DNA crosslinked complex: probe + UV, denaturing gel
T1 construct: human MEF2A DBD (residues 2-95); made in house
T1 sequence (Q02078 2-95): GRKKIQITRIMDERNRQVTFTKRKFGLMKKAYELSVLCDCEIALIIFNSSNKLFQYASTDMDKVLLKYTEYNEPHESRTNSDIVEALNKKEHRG
Excerpt: In vitro assays have confirmed the success and the efficiency of the demo probe (AMT-LC-SDA) in crosslinking double strand DNA of various contents and DNA-binding protein human myocyte enhancer factor 2A (MEF2A) (1-95 aa) (FIG. 5C-FIG. 5E). The solid crosslinking is confirmed for the probe with UV photo crosslinking conditions by denaturing or digestive approaches such as running with 8.3 M urea gel, SDS gel, combined with sample with overnight digestion of proteinase K at 65 Celsius and denatured at high temperature of 95 Celsius with SDS loading dye. […] Under these harsh evaluation conditions, the protein got digested on the crosslinking complex thoroughly, yet the remaining crosslinked amino acids residuals still have made the DNA to be in a larger size and shifted clearly compared to other controls, which is indicated by the bold shaped arrow. Agarose gel was also used for its bigger pore size to estimate the crosslinking efficiency (UV 2 hrs), estimated by the amount of the left free DNA, our probe has reached around 30-60% efficiency (FIG. 5E), which is much higher than the UV-initiated protein DNA crosslinking without the use of a probe (10-20%) as reported in Nature Communications, volume 11, Article number: 3019 (2020). […] This further supports the idea of applying this probe for replacement of formaldehyde, it crosslinks the protein only within the proximity of nucleic acids, thereby largely reducing the random protein-protein crosslinking noise and helps to preserve the native state of protein epitopes.
The BFPX probe 4AMT-LC-SDA was synthesized with good yield by the NHS-amine chemistry using psoralen and diazirine derivatives (FIG. 5A, FIG. 5B). To test its photo crosslinking ability, human transcription factor MEF2A (the MADS-box/MEF2 domain) and double strand DNA containing a MEF2 binding site were used. We first used electrophoresis mobility shift assay (EMSA) to validate the activity of the purified recombinant MEF2A DNA-binding domain. After finding out the optimal protein to DNA ratio, the in vitro assembled MEF2/DNA complex was then subject to photocrosslinking in the presence or absence of the 4AMT-LC-SDA probe with or without UV illumination. Multiple other control experiments were carried out in parallel to test the specificity of photocrosslinking between the DNA and MEF2. Specifically, parameters such as protein/DNA amounts (1:[…]), ratio, UV time (10 m to 4 hrs), wavelength (320 to 360 nm), LV source (mercury long lamp, LED) and their distance to the reaction mixture have been optimized along the course. The MEF2 Protein and DNA were incubated first to mimic an in vivo binding mode and stoichiometry, and then the mixture was incubated with our 4AMT-LC-SDA probe to undergo UV illumination. The results were evaluated by running denaturing gels (SDS in FIG. 5D, or Urea in FIG. 5C) against the high temperature denatured reaction mixtures and checking the respective protein (silver stain) or DNA (FAM label) signals. To further rule out any other possible false positiveness during loading, proteinase K digestion was applied to all the samples including the negative controls with SDS at 65 degrees.

Hela cells = assay: Cell and nuclear permeability by click labelling with Alexa Fluor 647 picolyl azide, fluorescence imaging; format: cell-based; details: for dependence of immobilized fluorescent signal on probe concentration: 10 μM vs 100 μM under UV illumination, FIG. 14B; for immobilization of Alexa Fluor 647 picolyl azide in cells (cell and nuclear permeability): probe 10 μM or 100 μM, 30 min, UV 365 nm 5 min
Excerpt: FIG. 11A-FIG. 11F depicts permeability and subcellular distribution of the BFPX probe SPB-AAD in Hela cell. Top panel (FIG. 11A-FIG. 11C): buffer control experiments without adding SPB-AAD, (FIG. 11A) bright field; (FIG. 11B) fluorescence imaging of Alexa Fluor; (FIG. 11C) DAPI stain of the nuclei; Bottom panel: treatment with […], (FIG. 11D) bright field; (FIG. 11E) fluorescence imaging of Alexa Fluor; (FIG. 11F) DAPI stain of the nuclei.
FIG. 14A depicts characterization and testing of BFPX crosslinking inside cells. Hela cells were incubated with SPB-AAD or SPB-PEG4-AAD (10 μM or 100 μM) in the dark for 30 min to allow the DNA binding and intercalation by the psoralen moiety of the BFPX probes. After washing off the excessive BFPX probe, illuminate UV 365 nm for 5 min. An Alexa Fluor 647 picolyl azide molecule (from Click-iT™ Plus Alexa Fluor™ 647 Picolyl Azide Toolkit) was used to react with the alkyne group on SPB-AAD or SPB-PEG4-AAD via click reaction. After the click chemistry labeling, the unreacted fluorescent molecules were removed by washing. The nuclei were analyzed using fluorescence imaging. When no BFPX probes were added (columns 1 and 2) or adding probes without UV treatment (columns 3 and 6), little or no fluorescence signal was retained in the cells.
We next tested the cell and nuclear permeability of the BFPX probes using azide-containing fluorescent molecules through click reaction with the terminal alkyne in SPB-AAD and SPB-PEG4-AAD. Briefly, Hela cells were incubated with SPB-AAD or SPB-PEG4-AAD (10 μM or 100 μM) in the dark for 30 min to allow the DNA binding and intercalation by the psoralen moiety of the BFPX probes. After washing off the excess BFPX probes followed by illumination of UV 365 nm for 5 min, Alexa Fluor 647 picolyl azide was coupled to the alkyne group on SPB-AAD or SPB-PEG4-AAD via click reaction. After the click chemistry labeling, the unreacted fluorescent molecules were removed by washing. The nuclei were then be analyzed using fluorescence imaging (FIG. 14A). When no BFPX probes were added (columns 1 and 2) or adding probes without UV treatment (columns 3 and 6), little or no fluorescence signal was retained in the cells.
We also analyzed (i) cell permeability and subcellular distribution of the BFPX probes. We validated the cell and nuclear permeability of the BFPX probes and monitored their sub-cellular distribution using azide-containing fluorescent label through click reaction with the alkyne group (as in SPB-AAD and SPB-PEG3-AAD). Briefly, Hela cells were incubated with SPB-AAD (25 μM) in the dark for 30 min to allow the DNA binding and intercalation by the psoralen moiety of the BFPX probe. […] The nuclei were then analyzed using fluorescence imaging (FIG. 11). […]

low probe concentration at which a significant amount of crosslinked protein complex was observed (MEF2A/DNA complex; MEF2/DNA, FIG. 7 lane 7, UV 365 nm) | crosslinking efficiency (percentage of native protein-DNA complex being covalently crosslinked) (MEF2A/DNA complex; MEF2/DNA, FIG. 7 lane 5 (12.5 μM probe) vs lanes 1-3, free DNA FAM signal, UV 365 nm) | UV illumination time at which crosslinked complex was visible (MEF2A/DNA complex; MEF2/DNA, probe 100 μM) | UV illumination time at which crosslinking reached plateau (MEF2A/DNA complex; MEF2/DNA, probe 100 μM, plateau around 100 seconds and 5 min time points) | dependence of immobilized fluorescent signal on probe concentration (Hela cells) | crosslinking efficiency based on the DNA signal (MEF2A/DNA complex; MEF2/DNA, FIG. 8C lane 3 (10 μM probe) vs lane 1) | Structure (SMILES) | formation of covalent MEF2/DNA crosslinked complex (MEF2A/DNA complex) | immobilization of Alexa Fluor 647 picolyl azide in cells (cell and nuclear permeability) (Hela cells)
0.125 µM | 80-90% | 3 s | around 100 seconds | dosage dependent |  | C#CCCC1(CCNC(=O)CCCOc2c3occc3cc3ccc(=O)oc23)N=N1 [SPB-AAD, N-(2-(3-(but-3-yn-1-yl)-3H-diazirin-3-yl)ethyl)-4-((7-oxo-7H-furo[3,2-g]chromen-9-yl)oxy)butanamide] | formation of complexes that run as larger molecular species than both free protein and DNA | could be immobilized in the cells via click reaction
 |  |  |  |  | more than 90% | C#CCCC1(CCNC(=O)CCOCCOCCOCCC(=O)NCCNC(=O)CCCOc2c3occc3cc3ccc(=O)oc23)N=N1 [SPB-PEG3-AAD] | highly efficient crosslinking | 
 |  |  |  | dosage dependent |  | C#CCCC1(CCNC(=O)CCOCCOCCOCCOCCNC(=O)CCCOc2c3occc3cc3ccc(=O)oc23)N=N1 [SPB-PEG4-AAD, N-(2-(3-(but-3-yn-1-yl)-3H-diazirin-3-yl)ethyl)-1-(4-((7-oxo-7H-furo[3,2-g]chromen-9-yl)oxy)butanamido)-3,6,9,12-tetraoxapentadecan-15-amide] |  | could be immobilized in the cells via click reaction
